Laboratory results as given in ChEMBL document CHEMBL1152560, “Substituted 2-arylbenzothiazoles as kinase inhibitors: hit-to-lead optimization” (Bioorg Med Chem, 2009).

Experiments:
[1] = molecular target: T1, Discoidin domain-containing receptor 2 (Homo sapiens) (UniProt Q16832); assay: Residual activity of DDR2 at 1 uM by microplate scintillation counting
T1 sequence (whole entry): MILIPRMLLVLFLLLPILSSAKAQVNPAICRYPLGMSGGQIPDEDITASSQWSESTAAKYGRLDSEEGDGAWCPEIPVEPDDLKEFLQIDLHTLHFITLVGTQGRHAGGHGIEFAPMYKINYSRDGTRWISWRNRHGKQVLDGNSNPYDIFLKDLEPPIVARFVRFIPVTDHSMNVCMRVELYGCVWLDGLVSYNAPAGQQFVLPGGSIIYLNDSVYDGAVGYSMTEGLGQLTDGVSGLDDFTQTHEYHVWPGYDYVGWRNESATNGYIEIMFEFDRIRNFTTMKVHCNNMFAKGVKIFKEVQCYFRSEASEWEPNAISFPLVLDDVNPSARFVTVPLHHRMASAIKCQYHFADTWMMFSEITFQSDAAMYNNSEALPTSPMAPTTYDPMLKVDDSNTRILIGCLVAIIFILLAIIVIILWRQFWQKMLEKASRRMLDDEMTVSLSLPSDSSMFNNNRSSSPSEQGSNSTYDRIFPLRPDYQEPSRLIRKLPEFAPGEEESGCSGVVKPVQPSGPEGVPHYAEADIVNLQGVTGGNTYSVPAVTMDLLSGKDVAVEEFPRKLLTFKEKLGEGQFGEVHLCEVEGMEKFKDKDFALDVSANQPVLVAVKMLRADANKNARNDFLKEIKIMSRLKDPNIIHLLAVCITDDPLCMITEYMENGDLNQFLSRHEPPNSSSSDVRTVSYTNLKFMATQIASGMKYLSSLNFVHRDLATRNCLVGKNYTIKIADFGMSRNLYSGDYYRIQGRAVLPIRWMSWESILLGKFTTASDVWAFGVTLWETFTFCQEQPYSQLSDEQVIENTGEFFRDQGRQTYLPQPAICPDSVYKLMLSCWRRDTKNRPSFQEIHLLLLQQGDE

[2] = molecular target: 5'-AMP-activated protein kinase catalytic subunit alpha-1 (Homo sapiens) (UniProt Q13131); assay: Residual activity of AMPK-alpha1 fl at 0.1 uM by microplate scintillation counting
Chain of 5'-AMP-activated protein kinase catalytic subunit alpha-1 (Homo sapiens) (Q13131 whole entry, looked up): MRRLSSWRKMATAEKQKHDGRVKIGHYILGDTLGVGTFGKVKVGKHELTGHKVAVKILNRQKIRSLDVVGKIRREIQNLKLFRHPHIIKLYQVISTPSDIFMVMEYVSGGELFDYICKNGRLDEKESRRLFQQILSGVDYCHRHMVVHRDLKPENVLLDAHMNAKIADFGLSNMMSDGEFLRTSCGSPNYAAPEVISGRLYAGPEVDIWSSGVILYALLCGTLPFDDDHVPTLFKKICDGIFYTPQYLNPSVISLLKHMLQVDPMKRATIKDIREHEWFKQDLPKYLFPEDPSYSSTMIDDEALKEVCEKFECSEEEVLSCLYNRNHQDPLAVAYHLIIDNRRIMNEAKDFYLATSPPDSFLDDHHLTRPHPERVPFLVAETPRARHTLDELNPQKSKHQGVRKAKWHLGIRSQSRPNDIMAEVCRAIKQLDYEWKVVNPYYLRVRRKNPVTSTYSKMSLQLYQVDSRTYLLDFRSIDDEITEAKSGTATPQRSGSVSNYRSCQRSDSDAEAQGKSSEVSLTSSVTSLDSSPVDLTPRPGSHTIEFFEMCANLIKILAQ

[3] = molecular target: T2, Serine/threonine-protein kinase D3 (Homo sapiens) (UniProt O94806); assay: Residual activity of PKCnu at 10 uM by microplate scintillation counting
T2 sequence (whole entry): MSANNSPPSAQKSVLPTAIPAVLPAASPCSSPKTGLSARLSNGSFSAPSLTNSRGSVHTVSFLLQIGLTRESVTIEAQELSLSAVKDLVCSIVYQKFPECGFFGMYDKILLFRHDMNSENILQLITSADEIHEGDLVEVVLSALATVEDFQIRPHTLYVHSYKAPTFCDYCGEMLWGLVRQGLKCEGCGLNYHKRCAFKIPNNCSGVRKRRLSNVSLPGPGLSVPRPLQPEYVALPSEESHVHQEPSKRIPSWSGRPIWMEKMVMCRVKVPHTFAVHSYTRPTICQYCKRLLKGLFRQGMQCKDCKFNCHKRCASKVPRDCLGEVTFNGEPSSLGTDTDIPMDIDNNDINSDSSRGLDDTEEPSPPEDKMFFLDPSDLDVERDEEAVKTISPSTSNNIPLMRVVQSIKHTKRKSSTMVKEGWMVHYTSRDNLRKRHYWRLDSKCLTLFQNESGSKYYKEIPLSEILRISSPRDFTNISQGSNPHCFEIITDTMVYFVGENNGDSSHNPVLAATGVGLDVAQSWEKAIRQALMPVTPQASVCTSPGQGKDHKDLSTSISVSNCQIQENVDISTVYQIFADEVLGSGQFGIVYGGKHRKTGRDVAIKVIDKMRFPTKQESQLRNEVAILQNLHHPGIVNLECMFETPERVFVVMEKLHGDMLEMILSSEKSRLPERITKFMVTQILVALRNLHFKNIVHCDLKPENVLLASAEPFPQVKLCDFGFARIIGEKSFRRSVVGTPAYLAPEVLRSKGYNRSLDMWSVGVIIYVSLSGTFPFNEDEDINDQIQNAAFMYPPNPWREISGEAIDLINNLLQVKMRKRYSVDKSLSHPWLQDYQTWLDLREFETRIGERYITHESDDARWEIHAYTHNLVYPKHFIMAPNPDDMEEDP

[4] = molecular target: Serine/threonine-protein kinase 26 (Homo sapiens) (UniProt Q9P289); assay: Residual activity of MST4 at 0.1 uM by microplate scintillation counting
Chain of Serine/threonine-protein kinase 26 (Homo sapiens) (Q9P289 2-416 limits assumed): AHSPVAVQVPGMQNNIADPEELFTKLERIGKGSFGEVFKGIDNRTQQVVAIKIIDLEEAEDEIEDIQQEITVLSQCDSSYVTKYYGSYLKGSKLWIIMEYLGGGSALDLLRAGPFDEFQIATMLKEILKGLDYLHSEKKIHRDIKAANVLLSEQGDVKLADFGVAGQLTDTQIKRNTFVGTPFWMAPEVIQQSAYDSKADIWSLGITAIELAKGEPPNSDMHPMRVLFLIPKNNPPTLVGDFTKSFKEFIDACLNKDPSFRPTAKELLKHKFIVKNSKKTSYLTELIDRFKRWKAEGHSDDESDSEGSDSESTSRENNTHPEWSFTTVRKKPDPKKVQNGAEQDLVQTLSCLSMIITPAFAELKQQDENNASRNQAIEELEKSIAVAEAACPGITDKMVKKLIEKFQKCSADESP

[5] = molecular target: Tyrosine-protein kinase Lyn (Homo sapiens) (UniProt P07948); assay: Residual activity of LYN at 1 uM by microplate scintillation counting
Chain of Tyrosine-protein kinase Lyn (Homo sapiens) (P07948 2-512 limits assumed): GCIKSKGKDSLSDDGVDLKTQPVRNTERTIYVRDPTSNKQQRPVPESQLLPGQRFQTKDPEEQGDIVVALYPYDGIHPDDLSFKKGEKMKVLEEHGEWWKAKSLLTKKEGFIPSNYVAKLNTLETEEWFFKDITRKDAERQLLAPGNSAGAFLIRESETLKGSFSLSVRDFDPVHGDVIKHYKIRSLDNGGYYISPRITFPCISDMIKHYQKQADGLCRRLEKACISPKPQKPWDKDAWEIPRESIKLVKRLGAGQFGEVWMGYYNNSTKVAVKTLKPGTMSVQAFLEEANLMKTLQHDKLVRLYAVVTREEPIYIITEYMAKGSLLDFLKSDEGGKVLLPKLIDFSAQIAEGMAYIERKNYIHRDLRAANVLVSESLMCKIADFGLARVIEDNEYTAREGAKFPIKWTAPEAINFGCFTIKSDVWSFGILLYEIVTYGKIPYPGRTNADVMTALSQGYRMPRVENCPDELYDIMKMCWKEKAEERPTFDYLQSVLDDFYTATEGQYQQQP

[6] = molecular target: Tyrosine-protein kinase ABL1 (Homo sapiens) (UniProt P00519); assay: Residual activity of wild type ABL1 at 1 uM by microplate scintillation counting
Chain of Tyrosine-protein kinase ABL1 (Homo sapiens) (P00519 whole entry, canonical isoform): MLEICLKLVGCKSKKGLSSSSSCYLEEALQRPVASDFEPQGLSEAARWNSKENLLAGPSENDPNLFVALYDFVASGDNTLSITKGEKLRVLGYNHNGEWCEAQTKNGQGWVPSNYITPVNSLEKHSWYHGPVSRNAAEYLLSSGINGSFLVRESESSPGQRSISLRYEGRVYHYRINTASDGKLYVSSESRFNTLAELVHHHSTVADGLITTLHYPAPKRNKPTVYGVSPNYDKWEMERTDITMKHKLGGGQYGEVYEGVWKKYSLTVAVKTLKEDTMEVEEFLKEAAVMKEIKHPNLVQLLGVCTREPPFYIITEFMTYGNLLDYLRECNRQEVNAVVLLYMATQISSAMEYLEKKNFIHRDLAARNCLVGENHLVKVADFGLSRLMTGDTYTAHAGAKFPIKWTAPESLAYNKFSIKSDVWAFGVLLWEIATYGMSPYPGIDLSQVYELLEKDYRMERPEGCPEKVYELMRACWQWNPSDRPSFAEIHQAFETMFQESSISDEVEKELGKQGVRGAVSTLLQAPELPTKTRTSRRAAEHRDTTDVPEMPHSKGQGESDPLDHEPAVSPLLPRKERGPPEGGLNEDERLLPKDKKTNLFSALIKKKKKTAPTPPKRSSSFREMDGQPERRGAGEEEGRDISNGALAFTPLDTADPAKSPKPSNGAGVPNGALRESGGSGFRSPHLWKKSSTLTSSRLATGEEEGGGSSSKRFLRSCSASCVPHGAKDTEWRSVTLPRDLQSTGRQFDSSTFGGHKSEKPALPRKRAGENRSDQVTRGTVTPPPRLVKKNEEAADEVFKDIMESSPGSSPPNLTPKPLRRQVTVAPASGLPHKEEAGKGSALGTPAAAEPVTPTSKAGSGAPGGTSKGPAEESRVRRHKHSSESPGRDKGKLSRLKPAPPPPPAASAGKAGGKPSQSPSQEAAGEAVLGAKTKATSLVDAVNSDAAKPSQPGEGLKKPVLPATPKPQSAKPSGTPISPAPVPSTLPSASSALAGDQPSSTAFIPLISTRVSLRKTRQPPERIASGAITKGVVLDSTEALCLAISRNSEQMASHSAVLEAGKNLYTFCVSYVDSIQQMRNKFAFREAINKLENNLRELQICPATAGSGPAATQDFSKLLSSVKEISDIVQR

[7] = molecular target: Casein kinase I isoform gamma-2 (Homo sapiens) (UniProt P78368); assay: Residual activity of CK1gamma2 at 1 uM by microplate scintillation counting
Chain of Casein kinase I isoform gamma-2 (Homo sapiens) (P78368 whole entry, looked up, canonical isoform): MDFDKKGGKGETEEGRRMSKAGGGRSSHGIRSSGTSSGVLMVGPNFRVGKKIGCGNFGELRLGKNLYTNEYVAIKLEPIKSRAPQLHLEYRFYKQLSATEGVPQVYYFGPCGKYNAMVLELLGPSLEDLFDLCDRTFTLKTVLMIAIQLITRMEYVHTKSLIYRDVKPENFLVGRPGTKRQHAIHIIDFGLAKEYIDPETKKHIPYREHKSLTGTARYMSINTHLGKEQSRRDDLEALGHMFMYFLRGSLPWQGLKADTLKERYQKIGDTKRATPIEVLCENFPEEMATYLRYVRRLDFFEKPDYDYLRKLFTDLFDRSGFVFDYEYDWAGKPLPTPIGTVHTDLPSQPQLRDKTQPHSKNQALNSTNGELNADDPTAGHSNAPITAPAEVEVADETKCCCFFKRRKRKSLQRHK

[8] = molecular target: T3, Serine/threonine-protein kinase VRK1 (Homo sapiens) (UniProt Q99986); assay: Residual activity of VRK1 at 0.1 uM by microplate scintillation counting
T3 sequence (whole entry): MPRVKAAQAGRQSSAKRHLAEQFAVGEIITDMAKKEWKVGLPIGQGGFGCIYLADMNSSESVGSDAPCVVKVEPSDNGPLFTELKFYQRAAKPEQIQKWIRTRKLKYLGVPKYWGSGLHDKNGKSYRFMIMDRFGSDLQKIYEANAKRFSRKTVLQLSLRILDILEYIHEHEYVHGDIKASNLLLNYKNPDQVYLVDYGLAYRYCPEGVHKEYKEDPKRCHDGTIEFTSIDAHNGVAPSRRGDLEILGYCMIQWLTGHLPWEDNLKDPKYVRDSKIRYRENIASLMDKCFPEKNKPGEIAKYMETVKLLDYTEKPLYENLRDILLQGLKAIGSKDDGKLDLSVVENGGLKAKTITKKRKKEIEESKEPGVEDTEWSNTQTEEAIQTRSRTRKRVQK

[9] = molecular target: Tyrosine-protein kinase Blk (Homo sapiens) (UniProt P51451); assay: Residual activity of BLK at 0.1 uM by microplate scintillation counting
Chain of Tyrosine-protein kinase Blk (Homo sapiens) (P51451 2-505 limits assumed): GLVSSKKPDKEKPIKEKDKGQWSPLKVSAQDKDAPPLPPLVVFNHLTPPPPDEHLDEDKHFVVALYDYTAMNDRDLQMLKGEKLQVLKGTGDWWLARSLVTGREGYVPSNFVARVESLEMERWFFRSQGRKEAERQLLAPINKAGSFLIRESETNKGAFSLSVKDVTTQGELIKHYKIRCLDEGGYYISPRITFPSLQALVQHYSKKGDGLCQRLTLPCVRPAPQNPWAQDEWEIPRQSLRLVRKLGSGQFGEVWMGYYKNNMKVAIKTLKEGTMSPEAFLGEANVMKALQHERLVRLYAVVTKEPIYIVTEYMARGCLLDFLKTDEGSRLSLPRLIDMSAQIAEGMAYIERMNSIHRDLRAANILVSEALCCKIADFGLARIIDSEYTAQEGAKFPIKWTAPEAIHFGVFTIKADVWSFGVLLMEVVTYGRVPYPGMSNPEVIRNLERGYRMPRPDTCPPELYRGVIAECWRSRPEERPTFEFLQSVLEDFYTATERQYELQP

[10] = molecular target: Interleukin-1 receptor-associated kinase 1 (Homo sapiens) (UniProt P51617); assay: Residual activity of IRAKI at 1 uM by microplate scintillation counting
Chain of Interleukin-1 receptor-associated kinase 1 (Homo sapiens) (P51617 whole entry, looked up): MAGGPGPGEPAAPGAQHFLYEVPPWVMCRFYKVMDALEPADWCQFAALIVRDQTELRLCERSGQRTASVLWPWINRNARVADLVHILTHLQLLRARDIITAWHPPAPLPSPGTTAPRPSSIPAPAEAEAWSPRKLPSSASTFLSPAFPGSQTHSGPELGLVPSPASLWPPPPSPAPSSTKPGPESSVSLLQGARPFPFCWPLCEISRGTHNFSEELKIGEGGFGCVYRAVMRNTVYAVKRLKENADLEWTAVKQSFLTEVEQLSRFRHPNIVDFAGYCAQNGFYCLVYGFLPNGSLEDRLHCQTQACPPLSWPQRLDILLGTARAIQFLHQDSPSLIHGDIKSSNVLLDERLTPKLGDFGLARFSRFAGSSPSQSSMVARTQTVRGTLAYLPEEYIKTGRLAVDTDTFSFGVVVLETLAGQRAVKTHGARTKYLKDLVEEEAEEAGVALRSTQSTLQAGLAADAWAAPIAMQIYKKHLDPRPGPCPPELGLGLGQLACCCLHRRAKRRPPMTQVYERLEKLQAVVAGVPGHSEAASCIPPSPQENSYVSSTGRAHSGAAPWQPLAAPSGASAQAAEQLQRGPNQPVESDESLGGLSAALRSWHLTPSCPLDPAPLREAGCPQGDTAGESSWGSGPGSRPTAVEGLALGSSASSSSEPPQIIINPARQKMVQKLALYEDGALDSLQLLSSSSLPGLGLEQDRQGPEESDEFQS

SMILES	residual activity [1] [%]	residual activity [2] [%]	residual activity [3] [%]	residual activity [4] [%]	residual activity [5] [%]	residual activity [6] [%]	residual activity [7] [%]	residual activity [8] [%]	residual activity [9] [%]	residual activity [10] [%]
COc1cc2c(Oc3ccc(-c4nc5ccccc5s4)cc3F)ncnc2cc1OCCCN1CCN(C)CC1	88	86	50	107	93	110	100	89	89	93
COc1cc2c(Oc3ccc(-c4nc5ccccc5s4)cc3)ncnc2cc1OCCCN1CCCC1	99	101	82	93	119	100	107	93	97	58
COc1cc2c(Oc3ccc(-c4nc5ccccc5s4)cc3)ncnc2cc1OCCCN1CCN(C)CC1	79	94	52	106	104	99	98	97	90	74
